Measured values reported in US11667602B2, “Compounds and their use” (AstraZeneca AB, priority 2020, dated 2023).
In brackets after ≈: the same amount, converted by molar mass.

Assays:
Solubility (Test F) = assay type: physicochemical; details: arithmetic mean if run multiple times
Method: The assay was conducted according to the Solubility Assay described in pages 164-167 of Wernevik, J. et al., “A Fully Integrated Assay Panel for Early Drug Metabolism and Pharmacokinetics Profiling”, Assay and Drug Development Technologies, 2020, 18(4), 157-179. Data are reported in Table 36 as solubility ([…]. Where the assay was run multiple times for the same compound, the arithmetic mean is reported.

[1] = Rat Hepatocyte Stability (Test E); assay type: in vitro ADME; details: rat, hepatocytes, geometric mean if run multiple times
Method: Rat Hepatocyte Stability (Test E)
The assay was conducted according to the Rat Hepatocyte Stability Assay described in pages 170-174 of Wernevik, J. et al., “A Fully Integrated Assay Panel for Early Drug Metabolism and Pharmacokinetics Profiling”, Assay and Drug Development Technologies, 2020, 18(4), 157-179. Data are reported in Table 36 as mean Clint(μl/min/10^6 cells). Where the assay was run multiple times for the same compound, the geometric mean is reported.

[2] = Human Liver Microsomal Stability (Test C); assay type: in vitro ADME; details: human, liver microsomes
Method: Human Liver Microsomal Stability (Test C)
The assay was conducted according to the Human Liver Microsome Stability Assay described in pages 170-174 of Wernevik, J. et al., “A Fully Integrated Assay Panel for Early Drug Metabolism and Pharmacokinetics Profiling”, Assay and Drug Development Technologies, 2020, 18(4), 157-179. Data are reported in Table 36 as CLint (μl/min/mg protein). Where the assay was run multiple times for the same compound, the arithmetic mean is reported.

human RXFP1 = molecular target: T1, human RXFP1 (Homo sapiens, UniProt Q9HBX9); experiment: RXFP1 Hu cAMP (Test A); assay type: cell-based; set-up: expressed in transfected cells; host or cells: Jump-In T-REx CHO-K1 cells (ThermoFisher), induced with 10 ng/ml doxycycline for 24 h; details: RXFP1 Hu cAMP; for EC50: read-out: Test A EC50
T1 sequence (Q9HBX9 1-757): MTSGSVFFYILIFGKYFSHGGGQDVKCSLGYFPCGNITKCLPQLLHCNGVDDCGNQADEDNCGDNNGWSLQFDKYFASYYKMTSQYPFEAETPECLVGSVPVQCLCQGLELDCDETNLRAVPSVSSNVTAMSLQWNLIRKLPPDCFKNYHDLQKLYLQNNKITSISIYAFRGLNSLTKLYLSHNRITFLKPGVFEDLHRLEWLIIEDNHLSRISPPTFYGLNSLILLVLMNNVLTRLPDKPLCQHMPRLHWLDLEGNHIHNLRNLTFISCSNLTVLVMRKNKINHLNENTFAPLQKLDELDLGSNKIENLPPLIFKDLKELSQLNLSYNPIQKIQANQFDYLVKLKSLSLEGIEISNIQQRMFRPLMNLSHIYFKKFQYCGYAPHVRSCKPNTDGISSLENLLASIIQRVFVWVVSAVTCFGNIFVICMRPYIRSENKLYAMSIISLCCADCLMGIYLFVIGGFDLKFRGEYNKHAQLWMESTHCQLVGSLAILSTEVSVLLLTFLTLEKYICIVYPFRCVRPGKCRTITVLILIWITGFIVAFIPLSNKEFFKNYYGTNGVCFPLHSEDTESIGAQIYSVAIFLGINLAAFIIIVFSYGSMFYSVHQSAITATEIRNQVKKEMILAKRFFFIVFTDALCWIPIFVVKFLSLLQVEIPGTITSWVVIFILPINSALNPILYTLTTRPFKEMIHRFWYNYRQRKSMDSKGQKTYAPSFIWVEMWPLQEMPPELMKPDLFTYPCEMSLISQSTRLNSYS
Summary of the method: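 CHO-K1 (Jump-In T-REx), RXFP1 induced w/ 10 ng/ml doxycycline 24 h, cryopreserved. 0.5 mM IBMX final. cAMP by HTRF, 2 h RT, std curve.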

Row | Compound | Test A Sinf (human RXFP1) | EC50 (human RXFP1) | also measured
1 | COc1cc(F)c(O[C@H]2CC[C@@](C)(C(N)=O)CC2)cc1C(=O)N[C@@H]1[C@H]2CC[C@H](C2)[C@@H]1C(=O)NCC(C)(C)C [Example 53, (1R,2S,3R,4S)-3-(5-(((1s,4S)-4-Carbamoyl-4-methylcyclohexyl)oxy)-4-fluoro-2-methoxybenzamido)-N-neopentylbicyclo[2.2.1]heptane-2-carboxamide] | 122% | 160 nM | solubility (Solubility (Test F)): 39 µM (≈ 20.7 µg/mL); hepatocyte CLint [1]: 150 µL/min/1e6 cells; microsomal CLint [2]: 130 µL/min/mg
2 | Cn1ncc2cc(C(=O)N[C@@H]3[C@H]4CC[C@H](C4)[C@@H]3C(=O)NCC3(C)CCC3)cc(O[C@H]3CC[C@@](C)(C(=O)O)CC3)c21 [Example 378] | – | > 2500 nM | –
3 | COc1cc(F)c(-c2ccc(C(=O)O)cc2)cc1C(=O)N[C@@H]1[C@@H]2CC[C@@H](C2)[C@@H]1C(=O)Nc1cccc(S(=O)(=O)C(F)(F)F)c1 (racemic) [Example 303] | 114% | 260 nM | –
4 | O=C(O)c1ccc(-c2cc(C(=O)N[C@H]3[C@@H](C(=O)Nc4cccc(S(=O)(=O)C(F)(F)F)c4)[C@@H]4C=C[C@H]3C4)c(F)cc2F)cc1 (racemic) [Example 306, rac-2′,4′-Difluoro-5′-(((1R,2R,3S,4S)-3-((3-((trifluoromethyl)sulfonyl)phenyl)carbamoyl)bicyclo[2.2.1]hept-5-en-2-yl)carbamoyl)-[1,1′-biphenyl]-4-carboxylic acid] | 73% | – | –
5 | COc1cc(F)c(OCC23CCC(C(=O)O)(CC2)CC3)cc1C(=O)N[C@@H]1[C@H]2CC[C@H](C2)[C@@H]1C(=O)Nc1cccc(S(=O)(=O)C(F)(F)F)c1 [Example 441] | – | > 40000 nM | –
6 | COc1cc(F)c(O[C@@H]2C[C@@H]3[C@H](C2)[C@H]3C(=O)O)cc1C(=O)N[C@@H]1[C@H]2CC[C@H](C2)[C@@H]1C(=O)NCC1(C)CCC1 (racemic) [Example 425, (1RS,3SR,5SR,6RS)-3-(2-Fluoro-4-methoxy-5-(((1S,2R,3S,4R)-3-(((1-methylcyclobutyl)methyl)carbamoyl)bicyclo[2.2.1]heptan-2-yl)carbamoyl)phenoxy)bicyclo[3.1.0]hexane-6-carboxylic acid] | 78% | – | –
7 | COc1cc(F)c(O[C@H]2CC[C@](C)(C(=O)O)CC2)cc1C(=O)NC1[C@H]2CC[C@H](C2)[C@@H]1C(=O)Nc1cccc(S(=O)(=O)C(F)(F)F)c1 (stereo partly drawn) [Example 445] | 101% | – | –
8 | (1R,4s)-4-(2-Fluoro-5-(((1S*,2R*)-2-((4-fluoro-3-(pentafluoro-λ6-sulfaneyl)phenyl)carbamoyl)cyclobutyl)carbamoyl)-4-methoxyphenoxy)-1-methylcyclohexane-1-carboxylic acid [Example 571] | 100% | – | –
9 | COc1cc(C#N)c(O[C@H]2CC[C@@](C)(C(=O)O)CC2)cc1C(=O)N[C@@H]1[C@H]2CC[C@H](C2)[C@@H]1C(=O)NC[C@H](C)c1ccccc1 [Example 118] | 99% | 43 nM | –
10 | COc1cc(F)c(-c2cccc(C(=O)O)n2)cc1C(=O)N[C@H]1[C@@H](C(=O)Nc2cccc(S(=O)(=O)C(F)(F)F)c2)[C@@H]2C=C[C@H]1C2 (racemic) [Example 279] | – | > 40000 nM | –
11 | COc1cc(C#N)c(O[C@H]2CC[C@@](C)(C(=O)O)CC2)cc1C(=O)N[C@@H]1[C@H]2CC[C@H](C2)[C@@H]1C(=O)NC1CCCCC1 [Example 121] | 98% | 130 nM | –
12 | COc1cc(F)c(Cn2nccc2C(=O)O)cc1C(=O)N[C@@H]1[C@H]2CC[C@H](C2)[C@@H]1C(=O)Nc1cccc(S(=O)(=O)C(F)(F)F)c1 [Example 221, 1-(2-Fluoro-4-methoxy-5-(((1S,2R,3S,4R)-3-((3-((trifluoromethyl)sulfonyl)phenyl)carbamoyl)bicyclo[2.2.1]heptan-2-yl)carbamoyl)benzyl)-1H-pyrazole-5-carboxylic acid] | – | > 40000 nM | –
13 | COc1cc(F)c(O[C@H]2CC[C@](CC#N)(C(=O)O)CC2)cc1C(=O)N[C@@H]1[C@H]2CC[C@H](C2)[C@@H]1C(=O)NCC1(C)CCC1 [Example 423, (1R,4r)-1-(Cyanomethyl)-4-(2-fluoro-4-methoxy-5-(((1S,2R,3S,4R)-3-(((1-methylcyclobutyl)methyl)carbamoyl)bicyclo[2.2.1]heptan-2-yl)carbamoyl)phenoxy)cyclohexane-1-carboxylic acid] | 89% | – | –
14 | CCC(CC)NC(=O)c1ccc(C)cc1NC(=O)c1cc(O[C@H]2CC[C@@](C)(C(=O)O)CC2)c(C#N)cc1OC [Example 168] | 121% | > 2200 nM | –

Second part, led by results:

Row | Test A Sinf (human RXFP1) | EC50 (human RXFP1) | Compound | also measured
15 | 109% | 76 nM | COc1cc(F)c(O[C@H]2CC[C@@](C)(C(=O)O)CC2)cc1C(=O)N[C@@H]1[C@H]2CC[C@H](C2)[C@@H]1C(=O)NCC1(C(F)(F)F)CCC1 [Example 613] | –
16 | 100% | 98 nM | COC[C@]1(C(=O)O)CC[C@H](Oc2cc(C(=O)N[C@@H]3[C@@H]4CC[C@@H](C4)[C@@H]3C(=O)Nc3cccc(S(=O)(=O)C(F)(F)F)c3)c(OC)cc2F)CC1 [Example 480] | –
17 | – | > 40000 nM | COc1cc(F)c(O[C@H]2CC[C@@](C)(C(=O)O)CC2)cc1C(=O)NC1C(C(=O)Nc2cccc(S(=O)(=O)C(F)(F)F)c2)CC(O)C1O (single isomer, unassigned) [Example 562, (1R,4s)-4-(5-(((1S*,2R*,3S*,5S*)-2,3-Dihydroxy-5-((3-((trifluoromethyl)sulfonyl)phenyl)carbamoyl)cyclopentyl)carbamoyl)-2-fluoro-4-methoxyphenoxy)-1-methylcyclohexane-1-carboxylic acid] | –
18 | 115% | 12 nM | COc1cc(F)c(O[C@H]2CC[C@@H](C(=O)O)CC2)cc1C(=O)N[C@H]1[C@@H](C(=O)Nc2ccc(F)c(S(=O)(=O)C(F)(F)F)c2)[C@@H]2C=C[C@H]1C2 [Example 489] | –
19 | – | > 40000 nM | COc1cc(F)c(O[C@H]2CC[C@@](C)(C(=O)O)CC2)cc1C(=O)NC1CC(OC)CC1C(=O)NCC(C)(C)C (single isomer, unassigned) [Example 546, (1R,4s)-4-(2-Fluoro-4-methoxy-5-(((1S*,2R*,4R*)-4-methoxy-2-(neopentylcarbamoyl)cyclopentyl)carbamoyl)phenoxy)-1-methylcyclohexane-1-carboxylic acid] | –
20 | 107% | 700 nM | COc1cc(F)c(OC2CCC(CO)(C(=O)O)CC2)cc1C(=O)NC1CC(OC)CC1C(=O)NCC1(C)CCC1 (single isomer, unassigned) [Example 551, (1R,4s)-4-(2-Fluoro-4-methoxy-5-(((1S*,2R*,4R*)-4-methoxy-2-(((1-methylcyclobutyl)methyl)carbamoyl)cyclopentyl)carbamoyl)phenoxy)-1-(hydroxymethyl)cyclohexane-1-carboxylic acid] | –
21 | 96% | 170 nM | COc1cc(F)c(O[C@H]2CC[C@@](C)(C(=O)O)CC2)cc1C(=O)NC1C2CCC(O2)C1C(=O)NCC1(C)CCC1 (single isomer, unassigned) [Example 530, (1R,4s)-4-(2-Fluoro-4-methoxy-5-(((1S*,2S*,3R*,4R*)-3-(((1-methylcyclobutyl)methyl)carbamoyl)-7-oxabicyclo[2.2.1]heptan-2-yl)carbamoyl)phenoxy)-1-methylcyclohexane-1-carboxylic acid] | –
22 | 100% | 120 nM | COc1cc(F)c(O[C@H]2CC[C@@](C)(C(=O)O)CC2)cc1C(=O)N[C@@H]1[C@H]2CC[C@H](C2)[C@@H]1C(=O)N[C@H](C)C(C)(C)C#N [Example 615] | –
